Reference: patent US20020055528A1, “Artemisinin analogs having antimalarial, antiproliferative, and antitumor activities and chemoselective methods of making the same” (priority 1999, published 2002)

Legend:
Assay type in all cases: cell-based
SN12C = assay: NCI 60 cell line screen (SRB), Renal Cancer
HCT-15 = assay: NCI 60 cell line screen (SRB), Colon Cancer
SW-620 = assay: NCI 60 cell line screen (SRB), Colon Cancer
NCI-H322M = assay: NCI 60 cell line screen (SRB), Non-Small Cell Lung Cancer
EKVX = assay: as above
HCC-2998 = assay: NCI 60 cell line screen (SRB), Colon Cancer
MALME-3M = assay: NCI 60 cell line screen (SRB), Melanoma
NCI/ADR-RES = assay: NCI 60 cell line screen (SRB), Breast Cancer
OVCAR-4 = assay: NCI 60 cell line screen (SRB), Ovarian Cancer
A498 = assay: NCI 60 cell line screen (SRB), Renal Cancer
SK-MEL-5 = assay: NCI 60 cell line screen (SRB), Melanoma
K-562 = assay: NCI 60 cell line screen (SRB), Leukemia
HOP-62 = assay: NCI 60 cell line screen (SRB), Non-Small Cell Lung Cancer
ACHN = assay: NCI 60 cell line screen (SRB), Renal Cancer
MDA-N = assay: NCI 60 cell line screen (SRB), Breast Cancer
PC-3 = assay: NCI 60 cell line screen (SRB), Prostate Cancer
HS 578T = assay: NCI 60 cell line screen (SRB), Breast Cancer
MCF7 = assay: NCI 60 cell line screen (SRB), Breast Cancer
MDA-MB231/ATCC = assay: NCI 60 cell line screen (SRB), Breast Cancer; conditions: MDA- (first line of MDA-MB231/ATCC)
RXF 393 = assay: NCI 60 cell line screen (SRB), Renal Cancer
DU-145 = assay: NCI 60 cell line screen (SRB), Prostate Cancer
U251 = assay: NCI 60 cell line screen (SRB), CNS Cancer
SK-OV-3 = assay: NCI 60 cell line screen (SRB), Ovarian Cancer
NCI-H460 = assay: NCI 60 cell line screen (SRB), Non-Small Cell Lung Cancer
MDA-MB-435 = assay: NCI 60 cell line screen (SRB), Breast Cancer
[1] = test system: MB231/ATCC (second line of the wrapped label, with values of its own); assay: NCI 60 cell line screen (SRB), Breast Cancer

In the case of `CC1=C(C=Cc2cccc(C=CC3=C(C)C4CCC(C)C5CCC6(C)OOC45C(O3)O6)c2)OC2OC3(C)CCC4C(C)CCC1C24OO3` (stereo not drawn) [VII-f], the Log10TGI (SN12C; SN12C, PG=0) is reported as over −4.00 log10M, the Log10GI50 (SN12C; SNI2C, PG=+50) is reported as −5.73 log10M and the Log10GI50 (SN12C; Table IV (LC50, PG=−50), SN12C) is reported as over −4.00 log10M. The Log10TGI (HCT-15; PG=0) was −4.82 log10M, the “log10 GI50 (PG=+50) or LC50 (PG=−50), per row condition” value (HCT-15; PG=+50) was −6.13 log10M and the “log10 GI50 (PG=+50) or LC50 (PG=−50), per row condition” value (HCT-15; Table IV (LC50, PG=−50)) was over −4.00 log10M. For the same compound, the Log10TGI (SW-620; PG=0) was over −4.00 log10M, the Log10GI50 (SW-620; PG=+50) was −5.90 log10M and the Log10TGI (NCI-H322M; PG=0) was −4.39 log10M. It also gave a Log10GI50 (NCI-H322M; PG=+50) of −6.05 log10M, a Log10TGI (EKVX; PG=0) of −4.58 log10M and a Log10GI50 (EKVX; PG=+50) of −6.21 log10M. The Log10GI50 (EKVX; Table IV (LC50, PG=−50)) was over −4.00 log10M, the Log10TGI (HCC-2998; PG=0) was over −4.00 log10M and the Log10GI50 (HCC-2998; PG=+50) was −5.59 log10M. It also gave a Log10TGI (MALME-3M; PG=0) of −4.82 log10M, a Log10GI50 (MALME-3M; PG=+50) of −5.65 log10M and a Log10GI50 (MALME-3M; Table IV (LC50, PG=−50)) of over −4.00 log10M. For the same compound, the Log10TGI (NCI/ADR-RES; PG=0) was −4.34 log10M, the Log10GI50 (NCI/ADR-RES; PG=+50) was −5.29 log10M and the Log10GI50 (NCI/ADR-RES; Table IV (LC50, PG=−50)) was over −4.00 log10M. For the same compound, the Log10GI50 (OVCAR-4; OVCAR-4, PG=+50) was −5.93 log10M, the Log10GI50 (OVCAR-4; Table IV (LC50, PG=−50), OVCAR−4) was over −4.00 log10M and the Log10TGI (A498; PG=0) was −4.37 log10M. It also gave a Log10GI50 (A498; PG=+50) of −4.79 log10M, a Log10GI50 (A498; Table IV (LC50, PG=−50)) of over −4.00 log10M and a Log10TGI (SK-MEL-5; PG=0) of −4.93 log10M. For the same compound, the “Log10 GI50 or LC50” value (SK-MEL-5; PG=+50) was −5.80 log10M, the “Log10 GI50 or LC50” value (SK-MEL-5; Table IV (LC50, PG=−50)) was over −4.00 log10M and the Log10TGI (K-562; PG=0) was −6.18 log10M. The Log10GI50 (K-562; PG=+50) was −6.18 log10M, the Log10GI50 (K-562; Table IV (LC50, PG=−50)) was over −4.00 log10M and the Log10TGI (HOP-62; PG=0) was over −4.00 log10M. For the same compound, the Log10GI50 (HOP-62; PG=+50) was −5.77 log10M, the Log10GI50 (HOP-62; Table IV (LC50, PG=−50)) was over −4.00 log10M and the Log10TGI (ACHN; PG=0) was over −4.00 log10M. For the same compound, the “Log10 GI50 or LC50 (see conditions)” value (ACHN; PG=+50) was −5.71 log10M, the “Log10 GI50 or LC50 (see conditions)” value (ACHN; Table IV (LC50, PG=−50)) was over −4.00 log10M and the Log10TGI (MDA-N; PG=0) was −4.18 log10M. It also gave a Log10GI50 (MDA-N; PG=+50) of −5.74 log10M, a Log10GI50 (MDA-N; Table IV (LC50, PG=−50)) of over −4.00 log10M and a Log10TGI (PC-3; PG=0) of over −4.00 log10M. The “Log10 GI50 (PG=+50) or LC50 (PG=−50)” value (PC-3; PG=+50) was −6.30 log10M, the “Log10 GI50 (PG=+50) or LC50 (PG=−50)” value (PC-3; Table IV (LC50, PG=−50)) was over −4.00 log10M and the Log10TGI (HS 578T; PG=0) was −4.31 log10M. It also gave a Log10GI50 (HS 578T; PG=+50) of −5.94 log10M, a Log10GI50 (HS 578T; Table IV (LC50, PG=−50)) of over −4.00 log10M and a Log10TGI (MCF7; PG=0) of over −4.00 log10M. It also gave a Log10GI50 (MCF7; PG=+50) of −6.06 log10M, a Log10GI50 (MCF7; Table IV (LC50, PG=−50)) of over −4.00 log10M and a Log10TGI (MDA-MB231/ATCC; PG=0) of −4.70 log10M. For the same compound, the “Log10 GI50 or LC50 (per conditions)” value (MDA-MB231/ATCC; PG=+50) was −5.67 log10M, the “Log10 GI50 or LC50 (per conditions)” value (MDA-MB231/ATCC; Table IV (LC50, PG=−50)) was over −4.00 log10M and the Log10TGI (RXF 393; PG=0) was over −4.00 log10M. For the same compound, the Log10GI50 (RXF 393; PG=+50) was −5.91 log10M, the Log10GI50 (RXF 393; Table IV (LC50, PG=−50)) was over −4.00 log10M and the Log10TGI (DU-145; PG=0) was over −4.00 log10M. The Log10GI50 (DU-145; PG=+50) was −5.16 log10M, the Log10GI50 (DU-145; Table IV (LC50, PG=−50)) was over −4.00 log10M and the Log10TGI (U251; PG=0) was over −4.00 log10M. The Log10GI50 (U251; PG=+50) was −6.03 log10M, the Log10GI50 (U251; Table IV (LC50, PG=−50)) was over −4.00 log10M and the Log10TGI (SK-OV-3; PG=0) was over −4.00 log10M. For the same compound, the Log10GI50 (SK-OV-3; PG=+50) was −4.52 log10M, the Log10GI50 (SK-OV-3; Table IV (LC50, PG=−50)) was over −4.00 log10M and the Log10TGI (NCI-H460; PG=0) was over −4.00 log10M. For the same compound, the “Log10 GI50 or Log10 LC50” value (NCI-H460; PG=+50) was −6.03 log10M, the Log10TGI (MDA-MB-435; MDA-MB-435, PG=0) was over −4.00 log10M and the Log10GI50 (MDA-MB-435; MDA-MB−435, PG=+50) was −5.86 log10M. For the same compound, the Log10GI50 (MDA-MB-435; Table IV (LC50, PG=−50), MDA-MB-435) was over −4.00 log10M, the Log10GI50 ([1]; PG=+50) was −6.13 log10M and the Log10GI50 ([1]; Table IV (LC50, PG=−50)) was over −4.00 log10M.
